From US9233983B2, “Substituted hetero-bicyclic compounds, compositions and medicinal applications thereof” (ADVINUS THERAPEUTICS LIMITED, priority 2012, dated 2016)
pIC50: −log10 of the molar value.

Columns and labels:
[1] = molecular target: human Bruton's Tyrosine Kinase (Btk) (Homo sapiens (Human), UniProt Q06187); test: Recombinant Human Bruton's Tyrosine Kinase (Btk) Inhibition Assay (HTRF KinEASE-TK); assay type: biochemical; conditions: 20 ng/ml rhBtk, 77 μM ATP (KM), 1 μM TK-Biotin substrate, 90 min; read-out: hBTK IC50
Chain of human Bruton's Tyrosine Kinase (Btk) (Q06187 whole entry): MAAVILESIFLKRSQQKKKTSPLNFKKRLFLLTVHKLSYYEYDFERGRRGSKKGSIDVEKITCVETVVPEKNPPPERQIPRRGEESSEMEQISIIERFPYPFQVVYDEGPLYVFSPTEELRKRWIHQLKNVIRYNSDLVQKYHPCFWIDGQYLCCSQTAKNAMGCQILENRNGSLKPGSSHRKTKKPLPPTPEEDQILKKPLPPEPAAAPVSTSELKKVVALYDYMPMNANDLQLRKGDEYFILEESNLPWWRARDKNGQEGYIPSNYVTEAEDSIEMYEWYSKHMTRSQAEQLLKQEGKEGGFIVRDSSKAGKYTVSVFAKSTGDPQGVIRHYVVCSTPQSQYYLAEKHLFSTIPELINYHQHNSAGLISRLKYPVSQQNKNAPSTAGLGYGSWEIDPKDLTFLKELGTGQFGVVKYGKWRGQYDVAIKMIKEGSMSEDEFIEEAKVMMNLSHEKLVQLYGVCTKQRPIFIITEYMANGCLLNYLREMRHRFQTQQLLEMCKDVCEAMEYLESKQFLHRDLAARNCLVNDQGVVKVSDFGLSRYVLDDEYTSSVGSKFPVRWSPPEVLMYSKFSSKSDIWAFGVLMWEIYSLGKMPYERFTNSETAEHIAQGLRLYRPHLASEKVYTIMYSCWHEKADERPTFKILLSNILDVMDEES

mouse splenocytes = test: Inhibition of B Cell Activation as Measured by CD69 Expression in Mouse Splenocytes; assay type: cell-based; conditions: Splenocyte; C57/BL6 splenocytes, 3 ug/mL goat anti-mouse IgM, 18-20 hrs, CD69+ve cells within CD19; read-out: Mouse spleenocyte IC50
Procedure: Inhibition of B Cell Activation as Measured by CD69 Expression in Mouse Splenocytes:
To test the effect of BTK inhibitors in suppressing B-cell receptor (BCR) mediated activation of B cells, we developed a flow cytometry based assay to analyze CD69 expression in B cell population among total splenocyte from the mouse. […] Finally, cell were cultured in RPMI medium with 10% FBS.
Test compounds were diluted half log starting from 2 mM in 100% DMSO (200×). 1×10^5 splenocytes were incubated with 1 uL of diluted test compounds in 200 uL culture medium in a U-bottom 96 well plate (Greiner) at 37° C. with 5% CO2 for 30 mins. Control wells received 1 uL of 100% DMSO without any compound. The cells were stimulated with 3 ug/mL goat anti-mouse IgM (Sigma, cat#M8644) and incubated for 18-20 hrs. […] Then the cells were washed 3 times with PBS with 1% FBS and analyzed by Guava Easycyte Mini flow cytometer system (Millipore). Flow cytometry data were analyzed using Weasel software (WEHI, Melbourne). First B cells were gated using CD19 markers. Then expression of CD69 was analyzed as percentage of CD69+ve cells within CD19. Percent activity for each data point was calculated using following formula: […]
Percentage activity was fit using sigmoid dose response with variable slope logistic equation in Graph-pad Prism 5 software to determine inhibition constant 50 (IC50).

pIC50 [1] | pIC50 (mouse splenocytes) | Structure (SMILES)
8.52 | 7.29 | CN1CCC(Oc2ccc(-c3cc4c(-c5cccc(N6CCOc7cc(C8CC8)ccc7C6=O)c5CO)ncnc4[nH]3)cc2)CC1 [Example G-1, 8-cyclopropyl-4-[2-(hydroxymethyl)-3-[6-[4-[(1-methyl-4-piperidyl)oxy]phenyl]-7H-pyrrolo[2,3-d]pyrimidin-4-yl]phenyl]-2,3-dihydro-1,4-benzoxazepin-5-one]
8.30 | 7.27 | CN1CC(Oc2ccc(-c3cc4c(-c5cccc(N6CCOc7cc(C8CC8)ccc7C6=O)c5CO)ncnc4[nH]3)cc2)C1 [Example G-2, 8-cyclopropyl-4-[2-(hydroxymethyl)-3-[6-[4-(1-methylazetidin-3-yl)oxyphenyl]-7H-pyrrolo[2,3-d]pyrimidin-4-yl]phenyl]-2,3-dihydro-1,4-benzoxazepin-5-one]
8.30 | 7.85 | CN1CCN(Cc2ccc(-c3cc4c(-c5cccc(N6CCOc7cc(C8CC8)ccc7C6=O)c5CO)ccnc4[nH]3)nc2)CC1 [Example I-1, 8-cyclopropyl-4-[2-(hydroxymethyl)-3-[2-[5-[(4-methylpiperazin-1-yl)methyl]-2-pyridyl]-1H-pyrrolo[2,3-b]pyridin-4-yl]phenyl]-2,3-dihydro-1,4-benzoxazepin-5-one]
9.00 | 8.30 | CN1CCN(Cc2ccc(-c3cc4c(-c5cccc(N6CCOc7cc(C8CC8)cc(F)c7C6=O)c5CO)ccnc4[nH]3)nc2)CC1 [Example I-2, 8-cyclopropyl-6-fluoro-4-[2-(hydroxymethyl)-3-[2-[5-[(4-methylpiperazin-1-yl)methyl]-2-pyridyl]-1H-pyrrolo[2,3-b]pyridin-4-yl]phenyl]-2,3-dihydro-1,4-benzoxazepin-5-one]
8.70 | 7.64 | CCN1CCN(Cc2ccc(-c3cc4c(-c5cccc(N6CCOc7cc(C8CC8)ccc7C6=O)c5CO)ccnc4[nH]3)nc2)CC1 [Example I-4, 8-cyclopropyl-4-[3-[2-[5-[(4-ethylpiperazin-1-yl)methyl]-2-pyridyl]-1H-pyrrolo[2,3-b]pyridin-4-yl]-2-(hydroxymethyl)phenyl]-2,3-dihydro-1,4-benzoxazepin-5-one]
8.52 | 7.52 | O=C1c2ccc(C3CC3)cc2OCCN1c1cccc(-c2ccnc3[nH]c(-c4ccc(CN5CCN(C6CC6)CC5)cn4)cc23)c1CO [Example I-5, 8-cyclopropyl-4-[3-[2-[5-[(4-cyclopropylpiperazin-1-yl)methyl]-2-pyridyl]-1H-pyrrolo[2,3-b]pyridin-4-yl]-2-(hydroxymethyl)phenyl]-2,3-dihydro-1,4-benzoxazepin-5-one]

Further lines, the compound ahead of its results:

Structure (SMILES) | pIC50 [1] | pIC50 (mouse splenocytes)
Cc1c(-c2ncnc3[nH]c(-c4ccc(N5CCN(C)CC5)cc4)cc23)cccc1N1CCOc2cc(C3CC3)ccc2C1=O [Example C-3, 8-cyclopropyl-4-[2-methyl-3-[6-[4-(4-methylpiperazin-1-yl)phenyl]-7H-pyrrolo[2,3-d]pyrimidin-4-yl]phenyl]-2,3-dihydro-1,4-benzoxazepin-5-one] | 7.68 | 6.76
CN1CCOC(c2ccc(-c3cc4c(-c5cccc(N6CCOc7cc(C8CC8)ccc7C6=O)c5CO)ccnc4[nH]3)cc2)C1 (centres unmarked) [Example C-5, 8-cyclopropyl-4-[2-(hydroxymethyl)-3-[2-[4-(4-methylmorpholin-2-yl)phenyl]-1H-pyrrolo[2,3-b]pyridin-4-yl]phenyl]-2,3-dihydro-1,4-benzoxazepin-5-one] | 8.52 | 6.90
CN1CCC(n2cc(-c3cc4c(-c5cccc(N6CCOc7cc(C8CC8)ccc7C6=O)c5CO)ncnc4[nH]3)cn2)CC1 [Example D-1, 8-cyclopropyl-4-[2-(hydroxymethyl)-3-[6-[1-(1-methyl-4-piperidyl)pyrazol-4-yl]-7H-pyrrolo[2,3-d]pyrimidin-4-yl]phenyl]-2,3-dihydro-1,4-benzoxazepin-5-one] | 8.22 | 7.49
CN1CCC(n2cc(-c3cc4c(-c5cccc(-n6ccc7cc(C8CC8)ccc7c6=O)c5CO)ncnc4[nH]3)cn2)CC1 [Example D-3, 6-cyclopropyl-2-[2-(hydroxymethyl)-3-[6-[1-(1-methyl-4-piperidyl)pyrazol-4-yl]-7H-pyrrolo[2,3-d]pyrimidin-4-yl]phenyl]isoquinolin-1-one] | 8.30 | 7.37
CN1CCC(c2ccc(-c3cc4c(-c5cccc(-n6ccc7cc(C8CC8)ccc7c6=O)c5CO)ncnc4[nH]3)cc2)CC1 [Example D-4, 6-cyclopropyl-2-[2-(hydroxymethyl)-3-[6-[4-(1-methyl-4-piperidyl)phenyl]-7H-pyrrolo[2,3-d]pyrimidin-4-yl]phenyl]isoquinolin-1-one] | 8.52 | 7.72
CN1CCC(n2cc(-c3cc4c(-c5cccc(N6CCOc7cc(C8CC8)ccc7C6=O)c5CO)ccnc4[nH]3)cn2)CC1 [Example D-5, 8-cyclopropyl-4-[2-(hydroxymethyl)-3-[2-[1-(1-methyl-4-piperidyl)pyrazol-4-yl]-1H-pyrrolo[2,3-b]pyridin-4-yl]phenyl]-2,3-dihydro-1,4-benzoxazepin-5-one] | 8.30 | 7.42
CN1CCCC(n2cc(-c3cc4c(-c5cccc(N6CCOc7cc(C8CC8)ccc7C6=O)c5CO)ncnc4[nH]3)cn2)C1 [Example D-6, 8-cyclopropyl-4-[2-(hydroxymethyl)-3-[6-[1-(1-methyl-3-piperidyl)pyrazol-4-yl]-7H-pyrrolo[2,3-d]pyrimidin-4-yl]phenyl]-2,3-dihydro-1,4-benzoxazepin-5-one] | 8.30 | 7.28
CN1CC(n2cc(-c3cc4c(-c5cccc(N6CCOc7cc(C8CC8)ccc7C6=O)c5CO)ccnc4[nH]3)cn2)C1 [Example D-7, 8-cyclopropyl-4-[2-(hydroxymethyl)-3-[2-[1-(1-methylazetidin-3-yl)pyrazol-4-yl]-1H-pyrrolo[2,3-b]pyridin-4-yl]phenyl]-2,3-dihydro-1,4-benzoxazepin-5-one] | 8.40 | 7.37
CC(C)N1CC(n2cc(-c3cc4c(-c5cccc(N6CCOc7cc(C8CC8)ccc7C6=O)c5CO)ccnc4[nH]3)cn2)C1 [Example D-8, 8-cyclopropyl-4-[2-(hydroxymethyl)-3-[2-[1-(1-isopropylazetidin-3-yl)pyrazol-4-yl]-1H-pyrrolo[2,3-b]pyridin-4-yl]phenyl]-2,3-dihydro-1,4-benzoxazepin-5-one] | 8.19 | 7.01
CN1CCC(n2cc(-c3cc4c(-c5cccc(-n6ncc7cc(C8CC8)ccc7c6=O)c5CO)ncnc4[nH]3)cn2)CC1 [Example D-9] | 8.70 | 7.48
CN1CCN(c2ccc(-c3cc4c(-c5cccc(N6CCOc7cc(C8CC8)ccc7C6=O)c5CO)ccnc4[nH]3)cn2)CC1 [Example D-11, 8-cyclopropyl-4-[2-(hydroxymethyl)-3-[2-[6-(4-methylpiperazin-1-yl)-3-pyridyl]-1H-pyrrolo[2,3-b]pyridin-4-yl]phenyl]-2,3-dihydro-1,4-benzoxazepin-5-one] | 7.85 | 7.10
CC(C)N1CC(Oc2ccc(-c3cc4c(-c5cccc(N6CCOc7cc(C8CC8)ccc7C6=O)c5CO)ccnc4[nH]3)cn2)C1 [Example D-12, 8-cyclopropyl-4-[2-(hydroxymethyl)-3-[2-[6-(1-isopropylazetidin-3-yl)oxy-3-pyridyl]-1H-pyrrolo[2,3-b]pyridin-4-yl]phenyl]-2,3-dihydro-1,4-benzoxazepin-5-one] | 7.96 | 6.58
CCN1CCC(n2cc(-c3cc4c(-c5cccc(-n6ncc7cc(C8CC8)ccc7c6=O)c5CO)ncnc4[nH]3)cn2)CC1 [Example D-13, 6-cyclopropyl-2-[3-[6-[1-(1-ethyl-4-piperidyl)pyrazol-4-yl]-7H-pyrrolo[2,3-d]pyrimidin-4-yl]-2-(hydroxymethyl)phenyl]phthalazin-1-one] | 8.52 | 7.19
O=C1c2c(F)cc(C3CC3)cc2OCCN1c1cccc(-c2ccnc3[nH]c(-c4cnn(C5CCN(C6COC6)CC5)c4)cc23)c1CO [Example D-14, 8-cyclopropyl-6-fluoro-4-[2-(hydroxymethyl)-3-[2-[1-[1-(oxetan-3-yl)-4-piperidyl]pyrazol-4-yl]-1H-pyrrolo[2,3-b]pyridin-4-yl]phenyl]-2,3-dihydro-1,4-benzoxazepin-5-one] | 8.77 | 8.10
O=C1c2ccc(C3CC3)cc2OCCN1c1cccc(-c2ccnc3[nH]c(-c4cnn(C5COC5)c4)cc23)c1CO [Example F-1, 8-cyclopropyl-4-[2-(hydroxymethyl)-3-[2-[1-(oxetan-3-yl)pyrazol-4-yl]-1H-pyrrolo[2,3-b]pyridin-4-yl]phenyl]-2,3-dihydro-1,4-benzoxazepin-5-one] | 8.52 | 7.15
CC1(O)CCC(n2cc(-c3cc4c(-c5cccc(N6CCOc7cc(C8CC8)ccc7C6=O)c5CO)ccnc4[nH]3)cn2)CC1 (centres unmarked) [Example F-3, 8-cyclopropyl-4-[2-(hydroxymethyl)-3-[2-[1-(4-hydroxy-4-methyl-cyclohexyl)pyrazol-4-yl]-1H-pyrrolo[2,3-b]pyridin-4-yl]phenyl]-2,3-dihydro-1,4-benzoxazepin-5-one] | 8.42 | 7.04
